According to patent publication US9096601B2 (CSPC Zhongqi Pharmaceutical Technology (Shijiazhuang) Co., …, priority 2010, dated 2015):
Like-named read-outs stand apart in the source and are kept apart here.

Legend:
EGFR L858R mutant type = EGFR L858R mutant type (Homo sapiens (Human), UniProt P00533, L858R); test: Kinase inhibitory activity, isotopic labeling (γ-33P-ATP); type: biochemical; conditions: ATP 200 μM (Km)
Description: (§1) The object of this assay was to test the inventive compounds for the kinase inhibitory activity in vitro. In this assay, an isotopic labeling method was used to label the γ phosphate group on ATP. […] Staurosporine was used as a reference molecule (or referred to as a positive control). […] The IC50 value can be obtained by the calculation of the inhibitory rates at a series of different concentrations of the tested compounds.
(§2) To a reaction tube were successively added the buffer solution (8 mM MOPS, pH 7.0, 0.2 mM EDTA, 10 mM MnCl2), the kinase to be tested (5-10 mU) (EGFR/ALK/BTK/c-KIT/c-SRC/MET/PDGFRα/VEGFR2), the substrate for the kinase to be tested (a reference material), 10 mM of the solution of magnesium acetate and γ-^33 P-ATP, and different concentrations of the tested compounds. […] The reaction was terminated with […] of the 3% phosphate buffer solution. 10 μL of the reaction liquid was titrated on the Filtermat A membrane. The membrane was washed with 75 mM of the phosphate solution thrice (5 minutes each time), and then with methanol once, and finally dried. The membrane was subjected to a scintillation counting. The value of the scintillation counting reflected the phosphorylation level of the substrate and therefore could characterize the inhibition of the kinase activity.

[1] = molecular target: EGFR L858R/T790M double mutant type (Homo sapiens (Human), UniProt P00533, L858R/T790M); test: as above; type: biochemical; conditions: ATP 45 μM (Km)
Description: as §1, §2

EGFR wild type = EGFR wild type (Homo sapiens (Human), UniProt P00533); test: as above; type: biochemical; conditions: ATP 10 μM (Km)
Description: as §1, §2

ALK = ALK (Homo sapiens (Human), UniProt Q9UM73); test: as above; type: biochemical; conditions: compound at 10 μM
Description: (§3) The object of this assay was to test the inventive compounds for the kinase inhibitory activity in vitro. In this assay, an isotopic labeling method was used to label the γ phosphate group on ATP. EGFR (including wild type, L858R mutant type and L858R/T790M double mutant type), VEGFR2, ALK, BTK, c-KIT, c-SRC, MET, PDGFRα and FLT3 kinases were tested in vitro for the activity inhibition. Staurosporine was used as a reference molecule (or referred to as a positive control). […] The IC50 value can be obtained by the calculation of the inhibitory rates at a series of different concentrations of the tested compounds.
as §2

BTK = BTK (Homo sapiens (Human), UniProt Q06187); test: as above; type: biochemical; conditions: compound at 10 μM
Description: as §3, §2

FLT3 = FLT3 (Homo sapiens (Human), UniProt P36888); test: as above; type: biochemical; conditions: compound at 10 μM
Description: as §3, §2

MET = MET (Homo sapiens (Human), UniProt P08581); test: as above; type: biochemical; conditions: compound at 10 μM
Description: as §3, §2

PDGFRα = PDGFRα (Homo sapiens (Human), UniProt P16234); test: as above; type: biochemical; conditions: compound at 10 μM
Description: as §3, §2

VEGFR2 = VEGFR2 (Homo sapiens (Human), UniProt P35968); test: as above; type: biochemical
Description: as §3, §2

c-KIT = c-KIT (Homo sapiens (Human), UniProt P10721); test: as above; type: biochemical; conditions: compound at 10 μM
Description: as §3, §2

c-SRC = c-SRC (Homo sapiens (Human), UniProt P12931); test: as above; type: biochemical; conditions: compound at 10 μM
Description: as §3, §2

[2] = system: colon cancer cell strain SW480; test: In-vitro tumor cell proliferation inhibition, MTT; type: cell-based, human
[3] = system: colon cancer cell strain SW620; test: In-vitro tumor cell proliferation inhibition, MTT; type: cell-based, human
Summary of the method: (§4)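 HCC827 and BT474 grew in RPMI-1640, A431 and SW620 in DMEM (10% FBS), seeded at 6×10^4 (HCC827) or 1-2×10^4 cells/ml overnight. Graded compound doses were applied for 72 h at 37 °C in triplicate, then MTT was added for 2-4 h and A570 was read. IC50 or inhibitory rate was derived versus untreated control.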

[4] = system: malignant melanoma cell strain A375; test: In-vitro tumor cell proliferation inhibition, MTT; type: cell-based, human
[5] = system: squamous cell carcinoma cell strain A431; test: In-vitro tumor cell proliferation inhibition, MTT; type: cell-based, human
Summary of the method: as §4

Chain of MET (P08581 25-1390): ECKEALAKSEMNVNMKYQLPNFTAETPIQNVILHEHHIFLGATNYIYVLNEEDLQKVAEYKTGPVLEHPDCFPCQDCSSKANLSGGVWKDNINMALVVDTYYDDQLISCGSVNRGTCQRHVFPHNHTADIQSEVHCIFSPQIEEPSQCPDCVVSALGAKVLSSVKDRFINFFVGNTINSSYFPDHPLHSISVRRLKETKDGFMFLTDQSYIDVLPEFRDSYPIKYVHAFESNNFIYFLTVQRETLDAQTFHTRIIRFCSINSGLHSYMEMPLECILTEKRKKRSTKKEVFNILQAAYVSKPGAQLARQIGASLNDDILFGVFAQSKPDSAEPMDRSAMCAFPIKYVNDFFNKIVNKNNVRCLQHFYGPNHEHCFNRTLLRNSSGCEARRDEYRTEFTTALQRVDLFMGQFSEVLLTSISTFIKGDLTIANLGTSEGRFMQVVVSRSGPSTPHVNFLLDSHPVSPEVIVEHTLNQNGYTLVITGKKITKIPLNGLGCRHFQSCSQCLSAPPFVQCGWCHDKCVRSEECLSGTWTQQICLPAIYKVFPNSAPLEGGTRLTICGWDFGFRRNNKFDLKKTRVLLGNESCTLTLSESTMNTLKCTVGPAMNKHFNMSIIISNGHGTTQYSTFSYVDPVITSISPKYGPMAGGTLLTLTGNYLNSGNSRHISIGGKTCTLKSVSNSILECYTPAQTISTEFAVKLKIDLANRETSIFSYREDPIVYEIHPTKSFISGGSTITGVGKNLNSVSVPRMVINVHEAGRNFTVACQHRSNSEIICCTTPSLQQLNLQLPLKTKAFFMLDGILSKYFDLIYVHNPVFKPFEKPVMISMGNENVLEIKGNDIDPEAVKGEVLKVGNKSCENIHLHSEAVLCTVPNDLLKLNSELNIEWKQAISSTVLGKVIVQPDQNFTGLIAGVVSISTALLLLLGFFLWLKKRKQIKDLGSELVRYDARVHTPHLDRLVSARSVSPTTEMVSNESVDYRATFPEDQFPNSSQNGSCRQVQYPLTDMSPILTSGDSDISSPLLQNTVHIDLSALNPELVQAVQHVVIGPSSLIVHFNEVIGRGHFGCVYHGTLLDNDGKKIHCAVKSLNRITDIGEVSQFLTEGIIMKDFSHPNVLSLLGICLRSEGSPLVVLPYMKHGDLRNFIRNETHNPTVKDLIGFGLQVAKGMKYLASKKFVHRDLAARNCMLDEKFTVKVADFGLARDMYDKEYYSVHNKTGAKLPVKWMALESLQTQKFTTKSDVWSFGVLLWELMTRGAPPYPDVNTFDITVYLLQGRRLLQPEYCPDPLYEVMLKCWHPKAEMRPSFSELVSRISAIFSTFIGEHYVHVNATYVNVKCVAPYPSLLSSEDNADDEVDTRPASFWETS
Chain of VEGFR2 (P35968 20-1356): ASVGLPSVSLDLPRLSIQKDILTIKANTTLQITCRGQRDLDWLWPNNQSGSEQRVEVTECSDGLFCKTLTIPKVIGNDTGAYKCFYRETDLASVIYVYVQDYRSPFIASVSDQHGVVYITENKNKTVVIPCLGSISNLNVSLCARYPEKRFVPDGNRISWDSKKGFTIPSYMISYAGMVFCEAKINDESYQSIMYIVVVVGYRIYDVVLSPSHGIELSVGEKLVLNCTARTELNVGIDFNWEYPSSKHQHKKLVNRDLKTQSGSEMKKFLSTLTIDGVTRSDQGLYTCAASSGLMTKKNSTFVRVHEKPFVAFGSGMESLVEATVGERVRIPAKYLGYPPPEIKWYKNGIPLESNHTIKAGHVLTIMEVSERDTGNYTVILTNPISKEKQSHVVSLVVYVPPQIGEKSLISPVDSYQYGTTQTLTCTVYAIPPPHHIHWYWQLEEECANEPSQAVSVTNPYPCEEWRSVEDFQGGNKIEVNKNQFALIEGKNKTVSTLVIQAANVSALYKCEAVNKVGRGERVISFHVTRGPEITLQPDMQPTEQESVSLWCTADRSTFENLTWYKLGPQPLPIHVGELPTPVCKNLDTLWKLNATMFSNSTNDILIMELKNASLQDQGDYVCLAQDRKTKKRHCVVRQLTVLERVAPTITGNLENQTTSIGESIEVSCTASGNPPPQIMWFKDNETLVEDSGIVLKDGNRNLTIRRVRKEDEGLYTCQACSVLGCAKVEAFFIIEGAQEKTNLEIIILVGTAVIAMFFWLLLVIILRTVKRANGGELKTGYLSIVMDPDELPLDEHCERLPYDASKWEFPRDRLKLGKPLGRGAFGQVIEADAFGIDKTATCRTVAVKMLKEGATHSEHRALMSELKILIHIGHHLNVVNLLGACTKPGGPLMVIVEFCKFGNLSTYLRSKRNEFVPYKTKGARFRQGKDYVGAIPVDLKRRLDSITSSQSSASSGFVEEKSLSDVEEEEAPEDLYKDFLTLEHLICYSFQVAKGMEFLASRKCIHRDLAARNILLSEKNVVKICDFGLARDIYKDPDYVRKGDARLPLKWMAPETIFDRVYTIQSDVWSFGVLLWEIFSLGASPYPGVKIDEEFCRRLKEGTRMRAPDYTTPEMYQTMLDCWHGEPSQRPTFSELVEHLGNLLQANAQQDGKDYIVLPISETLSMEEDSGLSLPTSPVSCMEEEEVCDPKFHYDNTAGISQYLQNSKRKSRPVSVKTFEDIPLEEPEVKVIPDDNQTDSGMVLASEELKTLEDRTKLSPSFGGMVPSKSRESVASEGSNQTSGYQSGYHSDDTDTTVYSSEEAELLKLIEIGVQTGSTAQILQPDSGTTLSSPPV
Chain of FLT3 (P36888 27-993): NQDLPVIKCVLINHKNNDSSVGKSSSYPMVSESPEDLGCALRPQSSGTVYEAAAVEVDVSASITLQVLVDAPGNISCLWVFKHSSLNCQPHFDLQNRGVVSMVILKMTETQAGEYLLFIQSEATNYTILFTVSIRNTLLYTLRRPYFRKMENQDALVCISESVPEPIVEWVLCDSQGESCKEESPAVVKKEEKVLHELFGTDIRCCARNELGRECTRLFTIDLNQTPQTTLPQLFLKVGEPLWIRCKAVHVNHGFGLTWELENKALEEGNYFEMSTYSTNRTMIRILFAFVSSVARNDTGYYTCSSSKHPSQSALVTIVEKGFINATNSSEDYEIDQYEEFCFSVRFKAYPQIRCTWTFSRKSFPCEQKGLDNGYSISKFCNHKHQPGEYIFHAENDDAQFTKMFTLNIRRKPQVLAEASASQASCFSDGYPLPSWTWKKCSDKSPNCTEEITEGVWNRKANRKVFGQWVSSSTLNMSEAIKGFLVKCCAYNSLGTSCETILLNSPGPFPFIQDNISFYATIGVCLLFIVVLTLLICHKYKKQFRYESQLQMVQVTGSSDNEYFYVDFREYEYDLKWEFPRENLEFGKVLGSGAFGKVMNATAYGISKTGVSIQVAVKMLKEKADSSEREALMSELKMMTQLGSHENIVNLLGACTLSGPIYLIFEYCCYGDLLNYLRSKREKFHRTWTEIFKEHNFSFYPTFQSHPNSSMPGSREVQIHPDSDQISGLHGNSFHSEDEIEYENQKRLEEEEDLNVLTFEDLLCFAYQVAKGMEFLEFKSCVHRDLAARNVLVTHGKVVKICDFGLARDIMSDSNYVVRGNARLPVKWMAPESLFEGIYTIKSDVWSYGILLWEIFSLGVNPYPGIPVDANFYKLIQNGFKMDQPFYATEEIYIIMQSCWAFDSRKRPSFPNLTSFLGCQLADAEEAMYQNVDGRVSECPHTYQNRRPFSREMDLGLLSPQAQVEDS
Chain of EGFR L858R mutant type (P00533 25-1210 L858R): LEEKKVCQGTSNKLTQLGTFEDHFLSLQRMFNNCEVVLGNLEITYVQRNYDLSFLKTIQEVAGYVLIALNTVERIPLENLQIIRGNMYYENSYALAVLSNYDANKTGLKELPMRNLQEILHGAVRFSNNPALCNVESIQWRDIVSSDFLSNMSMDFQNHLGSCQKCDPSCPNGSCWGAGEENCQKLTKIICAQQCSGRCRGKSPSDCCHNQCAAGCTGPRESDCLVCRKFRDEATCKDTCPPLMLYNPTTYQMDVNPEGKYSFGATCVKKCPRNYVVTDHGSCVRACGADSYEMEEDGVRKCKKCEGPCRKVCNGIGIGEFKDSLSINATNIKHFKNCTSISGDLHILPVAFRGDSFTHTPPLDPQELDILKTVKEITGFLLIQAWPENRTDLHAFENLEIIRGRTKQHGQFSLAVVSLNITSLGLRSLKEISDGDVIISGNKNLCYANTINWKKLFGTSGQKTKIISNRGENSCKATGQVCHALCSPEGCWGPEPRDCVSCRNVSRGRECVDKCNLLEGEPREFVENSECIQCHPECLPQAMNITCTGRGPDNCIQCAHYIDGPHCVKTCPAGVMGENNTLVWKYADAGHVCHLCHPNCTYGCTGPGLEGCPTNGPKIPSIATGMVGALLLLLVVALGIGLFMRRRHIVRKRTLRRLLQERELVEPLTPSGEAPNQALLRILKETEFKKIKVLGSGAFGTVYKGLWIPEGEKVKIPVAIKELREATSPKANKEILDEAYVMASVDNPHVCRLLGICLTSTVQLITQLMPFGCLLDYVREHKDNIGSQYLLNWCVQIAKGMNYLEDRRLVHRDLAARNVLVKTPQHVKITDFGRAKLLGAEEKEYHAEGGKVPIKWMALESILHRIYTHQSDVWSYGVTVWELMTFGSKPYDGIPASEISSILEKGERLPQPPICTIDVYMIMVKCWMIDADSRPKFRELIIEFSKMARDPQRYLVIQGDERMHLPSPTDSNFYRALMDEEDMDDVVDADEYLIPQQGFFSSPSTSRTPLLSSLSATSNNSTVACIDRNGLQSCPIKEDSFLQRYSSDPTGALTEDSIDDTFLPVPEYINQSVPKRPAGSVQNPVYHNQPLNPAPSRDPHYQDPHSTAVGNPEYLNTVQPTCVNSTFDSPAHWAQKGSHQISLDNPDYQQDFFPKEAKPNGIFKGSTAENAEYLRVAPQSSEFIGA

CC(C)n1c(Nc2ccccc2)nc2cnc(Nc3ccc(C(=O)NN4CCN(C)CC4)cc3)nc21 [Compound 8-1]
IC50 (EGFR L858R mutant type): 0.008 µM
IC50 [1]: 0.09 µM
IC50 (EGFR wild type): 0.003 µM
The kinase activity inhibitory rate (%) by the tested compounds at 10 μM ALK (ALK): 23%
The kinase activity inhibitory rate (%) by the tested compounds at 10 μM BTK (BTK): 46%
The kinase activity inhibitory rate (%) by the tested compounds at 10 μM FLT3 (FLT3): 85%
The kinase activity inhibitory rate (%) by the tested compounds at 10 μM MET (MET): 83%
The kinase activity inhibitory rate (%) by the tested compounds at 10 μM PDGFRα (PDGFRα): 43%
IC50 (VEGFR2; ATP 90 μM (Km)): > 1000 nM
The kinase activity inhibitory rate (%) by the tested compounds at 10 μM c-KIT (c-KIT): 26%
The kinase activity inhibitory rate (%) by the tested compounds at 10 μM c-SRC (c-SRC): 11%
IC50 ([2]; 72 hours): 5720 nM
IC50 ([3]; 72 hours): > 10000 nM
IC50 ([4]; 72 hours): 3020 nM
IC50 ([5]; 72 hours): 2060 nM

CC(C)n1c(Nc2ccc(F)c(Cl)c2)nc2cnc(Nc3ccc(C(=O)NN4CCN(C)CC4)cc3)nc21 [Compound 8-2]
IC50 (EGFR L858R mutant type): 0.001 µM
IC50 [1]: < 0.001 µM
IC50 (EGFR wild type): 0.002 µM
The kinase activity inhibitory rate (%) by the tested compounds at 10 μM ALK (ALK): 63%
The kinase activity inhibitory rate (%) by the tested compounds at 10 μM BTK (BTK): 98%
The kinase activity inhibitory rate (%) by the tested compounds at 10 μM FLT3 (FLT3): 78%
The kinase activity inhibitory rate (%) by the tested compounds at 10 μM MET (MET): 100%
The kinase activity inhibitory rate (%) by the tested compounds at 10 μM PDGFRα (PDGFRα): 84%
IC50 (VEGFR2; ATP 90 μM (Km)): > 1000 nM
The kinase activity inhibitory rate (%) by the tested compounds at 10 μM c-KIT (c-KIT): 90%
The kinase activity inhibitory rate (%) by the tested compounds at 10 μM c-SRC (c-SRC): 99%
IC50 ([2]; 72 hours): > 10000 nM
IC50 ([3]; 72 hours): 5570 nM
IC50 ([4]; 72 hours): 1590 nM
IC50 ([5]; 72 hours): 9290 nM

COc1cc(C(=O)NN2CCN(C)CC2)ccc1Nc1ncc2nc(Nc3ccccc3)n(C(C)C)c2n1 [Compound 8-7, 3-methoxy-4-(9-isopropyl-8-phenylamino-9H-purin-2-ylamino)-N-(4-methylpiperazin-1-yl)benzamide]
inhibition at 10 µM (ALK; read-out: The kinase activity inhibitory rate (%) by the tested compounds at 10 μM ALK): 61%
inhibition at 10 µM (BTK; read-out: The kinase activity inhibitory rate (%) by the tested compounds at 10 μM BTK): 12%
inhibition at 10 µM (FLT3; read-out: The kinase activity inhibitory rate (%) by the tested compounds at 10 μM FLT3): 0%
inhibition at 10 µM (MET; read-out: The kinase activity inhibitory rate (%) by the tested compounds at 10 μM MET): 0%
inhibition at 10 µM (PDGFRα; read-out: The kinase activity inhibitory rate (%) by the tested compounds at 10 μM PDGFRα): 9%
IC50 (VEGFR2): > 1000 nM
inhibition at 10 µM (c-KIT; read-out: The kinase activity inhibitory rate (%) by the tested compounds at 10 μM c-KIT): 8%
inhibition at 10 µM (c-SRC; read-out: The kinase activity inhibitory rate (%) by the tested compounds at 10 μM c-SRC): 28%
IC50 ([2]; Homo sapiens, SW480, 72 hours): > 10000 nM
IC50 ([3]; Homo sapiens, SW-620, 72 hours): > 10000 nM
IC50 ([4]; Homo sapiens, A-375, 72 hours): 1310 nM
IC50 ([5]; Homo sapiens, A-431, 72 hours): > 10000 nM

CC(C)n1c(Nc2ccccc2)nc2cnc(Nc3ccc(C(=O)NC4CCN(C)CC4)cc3)nc21 [Compounds 8-9]
IC50 (EGFR L858R mutant type): 0.0004 µM
IC50 [1]: 0.006 µM
IC50 (EGFR wild type): < 0.001 µM
The kinase activity inhibitory rate (%) by the tested compounds at 10 μM ALK (ALK): 36%
The kinase activity inhibitory rate (%) by the tested compounds at 10 μM BTK (BTK): 88%
The kinase activity inhibitory rate (%) by the tested compounds at 10 μM FLT3 (FLT3): 76%
The kinase activity inhibitory rate (%) by the tested compounds at 10 μM MET (MET): 67%
The kinase activity inhibitory rate (%) by the tested compounds at 10 μM PDGFRα (PDGFRα): 88%
IC50 (VEGFR2; ATP 90 μM (Km)): > 1000 nM
The kinase activity inhibitory rate (%) by the tested compounds at 10 μM c-KIT (c-KIT): 96%
The kinase activity inhibitory rate (%) by the tested compounds at 10 μM c-SRC (c-SRC): 98%
IC50 ([2]; 72 hours): > 10000 nM
IC50 ([3]; 72 hours): 524 nM
IC50 ([4]; 72 hours): 586 nM
IC50 ([5]; 72 hours): 1530 nM

CC(C)n1c(Nc2ccccc2)nc2cnc(Nc3ccc(N4CCN(C)CC4)cc3)nc21 [Compounds 8-10]
IC50 (EGFR L858R mutant type): 0.005 µM
IC50 [1]: 0.046 µM
IC50 (EGFR wild type): 0.005 µM
The kinase activity inhibitory rate (%) by the tested compounds at 10 μM ALK (ALK): 45%
The kinase activity inhibitory rate (%) by the tested compounds at 10 μM BTK (BTK): 32%
The kinase activity inhibitory rate (%) by the tested compounds at 10 μM FLT3 (FLT3): 87%
The kinase activity inhibitory rate (%) by the tested compounds at 10 μM MET (MET): 64%
The kinase activity inhibitory rate (%) by the tested compounds at 10 μM PDGFRα (PDGFRα): 87%
IC50 (VEGFR2; ATP 90 μM (Km)): > 1000 nM
The kinase activity inhibitory rate (%) by the tested compounds at 10 μM c-KIT (c-KIT): 3%
The kinase activity inhibitory rate (%) by the tested compounds at 10 μM c-SRC (c-SRC): 23%
IC50 ([2]; 72 hours): > 10000 nM
IC50 ([3]; 72 hours): 6060 nM
IC50 ([4]; 72 hours): 1490 nM
IC50 ([5]; 72 hours): 1580 nM

CC(C)n1c(Nc2cccc(Br)c2)nc2cnc(Nc3ccc(N4CCN(C)CC4)cc3)nc21 [Compounds 8-11]
IC50 (EGFR L858R mutant type): 0.004 µM
IC50 [1]: 0.005 µM
IC50 (EGFR wild type): 0.007 µM
The kinase activity inhibitory rate (%) by the tested compounds at 10 μM ALK (ALK): 33%
The kinase activity inhibitory rate (%) by the tested compounds at 10 μM BTK (BTK): 77%
The kinase activity inhibitory rate (%) by the tested compounds at 10 μM FLT3 (FLT3): 67%
The kinase activity inhibitory rate (%) by the tested compounds at 10 μM MET (MET): 93%
The kinase activity inhibitory rate (%) by the tested compounds at 10 μM PDGFRα (PDGFRα): 58%
IC50 (VEGFR2; ATP 90 μM (Km)): 140 nM
The kinase activity inhibitory rate (%) by the tested compounds at 10 μM c-KIT (c-KIT): 67%
The kinase activity inhibitory rate (%) by the tested compounds at 10 μM c-SRC (c-SRC): 98%
IC50 ([2]; 72 hours): > 10000 nM
IC50 ([3]; 72 hours): 1960 nM
IC50 ([4]; 72 hours): 1390 nM
IC50 ([5]; 72 hours): 7670 nM

C#Cc1cccc(Nc2nc3cnc(Nc4ccc(N5CCN(C)CC5)cc4)nc3n2C(C)C)c1 [Compounds 8-12]
IC50 (EGFR L858R mutant type): 0.003 µM
IC50 [1]: 0.003 µM
IC50 (EGFR wild type): 0.004 µM
The kinase activity inhibitory rate (%) by the tested compounds at 10 μM ALK (ALK): 80%
The kinase activity inhibitory rate (%) by the tested compounds at 10 μM BTK (BTK): 78%
The kinase activity inhibitory rate (%) by the tested compounds at 10 μM FLT3 (FLT3): 56%
The kinase activity inhibitory rate (%) by the tested compounds at 10 μM MET (MET): 93%
The kinase activity inhibitory rate (%) by the tested compounds at 10 μM PDGFRα (PDGFRα): 55%
IC50 (VEGFR2; ATP 90 μM (Km)): 50 nM
The kinase activity inhibitory rate (%) by the tested compounds at 10 μM c-KIT (c-KIT): 82%
The kinase activity inhibitory rate (%) by the tested compounds at 10 μM c-SRC (c-SRC): 98%
IC50 ([2]; 72 hours): > 10000 nM
IC50 ([3]; 72 hours): 1290 nM
IC50 ([4]; 72 hours): 3090 nM
IC50 ([5]; 72 hours): 2570 nM
